molecular target: T1, CDK1/Cyclin B (Homo sapiens, UniProt P06493); assay: Enzymatic assay for CDK1 (FRET based LANCE Ultra kinase assay); assay type: biochemical; details: read-out: CDK1 enzymatic activity (IC50 activity range)
T1 construct: purchased Invitrogen PR4768C
Method in brief: (§1)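 LANCE Ultra TR-FRET: ULight-MBP peptide (68 nM) with ATP at Km, […], 60 min at 23° C. EDTA plus Eu-anti-phospho-MBP added, another 60 min, then 665/615 nm emission read. Compounds tested as 8-dose 4-fold DMSO dilutions.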

T1 sequence (P06493 whole entry): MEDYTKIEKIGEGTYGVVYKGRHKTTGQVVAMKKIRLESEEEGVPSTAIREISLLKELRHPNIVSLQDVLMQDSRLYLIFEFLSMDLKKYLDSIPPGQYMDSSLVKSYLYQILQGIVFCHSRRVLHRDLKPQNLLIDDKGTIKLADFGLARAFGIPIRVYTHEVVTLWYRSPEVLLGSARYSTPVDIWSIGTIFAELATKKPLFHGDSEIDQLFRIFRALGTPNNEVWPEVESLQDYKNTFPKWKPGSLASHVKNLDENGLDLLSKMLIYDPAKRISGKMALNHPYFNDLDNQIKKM
T1 sequence (P14635 whole entry partner): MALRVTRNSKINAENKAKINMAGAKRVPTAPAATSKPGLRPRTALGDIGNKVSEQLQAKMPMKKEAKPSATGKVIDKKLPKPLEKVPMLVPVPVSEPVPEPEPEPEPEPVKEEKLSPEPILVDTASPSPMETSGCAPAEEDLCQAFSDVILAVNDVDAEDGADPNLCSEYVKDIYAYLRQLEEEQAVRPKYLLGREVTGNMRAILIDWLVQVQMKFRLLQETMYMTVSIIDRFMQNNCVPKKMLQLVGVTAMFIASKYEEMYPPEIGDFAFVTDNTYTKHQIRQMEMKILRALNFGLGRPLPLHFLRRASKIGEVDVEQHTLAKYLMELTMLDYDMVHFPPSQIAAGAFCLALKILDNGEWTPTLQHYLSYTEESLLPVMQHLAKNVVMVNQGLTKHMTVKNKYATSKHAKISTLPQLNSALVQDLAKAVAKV

Row | IC50 | Structure (SMILES)
1 | > 1000 nM | CC(C)c1cnn2c(NCc3c(Cl)cccc3-c3ccc4ccccc4n3)nc(N3CCCC[C@H]3CCO)nc12 [Compound 262]
2 | > 1000 nM | CC(C)c1cnn2c(NCc3ccccc3-c3ccc4ccccc4n3)nc(N3CCCC[C@H]3CO)nc12 [Compound 263]
3 | > 1000 nM | CC(C)c1cnn2c(NCc3c(Cl)cccc3-c3ccc4ccccc4n3)nc(N3CCCC[C@H]3CO)nc12 [Compound 264]

molecular target: T2, CDK2/Cyclin A (Homo sapiens, UniProt P24941); assay: Enzymatic assay for CDK2 (FRET based LANCE Ultra kinase assay); assay type: biochemical; details: read-out: CDK2 enzymatic activity (IC50 activity range)
T2 construct: purchased Invitrogen PV6290
Method in brief: as §1

Row | IC50 | Structure (SMILES)
4 | > 1000 nM | CC(C)c1cnn2c(NCc3c(Cl)cccc3-c3ccc4ccccc4n3)nc(N3CCCC[C@H]3CCO)nc12 [Compound 262]
5 | > 1000 nM | CC(C)c1cnn2c(NCc3ccccc3-c3ccc4ccccc4n3)nc(N3CCCC[C@H]3CO)nc12 [Compound 263]
6 | > 1000 nM | CC(C)c1cnn2c(NCc3c(Cl)cccc3-c3ccc4ccccc4n3)nc(N3CCCC[C@H]3CO)nc12 [Compound 264]

molecular target: T3, CDK5/p25 (Homo sapiens, UniProt Q00535); assay: Enzymatic assay for CDK5 (FRET based LANCE Ultra kinase assay); assay type: biochemical; details: read-out: CDK5 enzymatic activity (IC50 activity range)
T3 construct: purchased Invitrogen PR8543B
T3 sequence (Q00535 whole entry): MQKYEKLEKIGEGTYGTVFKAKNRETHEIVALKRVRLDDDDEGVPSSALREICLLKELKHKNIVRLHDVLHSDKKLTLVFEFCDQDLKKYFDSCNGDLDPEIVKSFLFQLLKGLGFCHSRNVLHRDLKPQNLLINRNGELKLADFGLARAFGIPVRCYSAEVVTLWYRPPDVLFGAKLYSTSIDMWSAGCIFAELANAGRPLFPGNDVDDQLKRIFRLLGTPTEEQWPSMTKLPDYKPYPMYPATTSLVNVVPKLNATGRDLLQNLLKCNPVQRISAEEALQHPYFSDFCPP
T3 sequence (Q15078 99-307 partner limits assumed): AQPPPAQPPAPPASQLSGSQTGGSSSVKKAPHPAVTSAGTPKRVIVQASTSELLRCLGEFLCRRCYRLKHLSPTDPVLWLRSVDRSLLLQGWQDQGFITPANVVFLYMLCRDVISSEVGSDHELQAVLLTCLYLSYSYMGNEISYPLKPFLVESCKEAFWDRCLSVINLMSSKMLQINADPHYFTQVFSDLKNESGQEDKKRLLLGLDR
Method in brief: as §1

Row | IC50 | Structure (SMILES)
7 | > 1000 nM | CC(C)c1cnn2c(NCc3c(Cl)cccc3-c3ccc4ccccc4n3)nc(N3CCCC[C@H]3CCO)nc12 [Compound 262]
8 | > 1000 nM | CC(C)c1cnn2c(NCc3ccccc3-c3ccc4ccccc4n3)nc(N3CCCC[C@H]3CO)nc12 [Compound 263]
9 | > 1000 nM | CC(C)c1cnn2c(NCc3c(Cl)cccc3-c3ccc4ccccc4n3)nc(N3CCCC[C@H]3CO)nc12 [Compound 264]

molecular target: T4, CDK7/Cyclin H/MNAT1 (Homo sapiens, UniProt P50613); assay: Enzymatic assay for CDK7 (FRET based LANCE Ultra kinase assay); assay type: biochemical; details: CDK1/CDK7
T4 construct: purchased Invitrogen PR6749B
T4 sequence (P50613 whole entry): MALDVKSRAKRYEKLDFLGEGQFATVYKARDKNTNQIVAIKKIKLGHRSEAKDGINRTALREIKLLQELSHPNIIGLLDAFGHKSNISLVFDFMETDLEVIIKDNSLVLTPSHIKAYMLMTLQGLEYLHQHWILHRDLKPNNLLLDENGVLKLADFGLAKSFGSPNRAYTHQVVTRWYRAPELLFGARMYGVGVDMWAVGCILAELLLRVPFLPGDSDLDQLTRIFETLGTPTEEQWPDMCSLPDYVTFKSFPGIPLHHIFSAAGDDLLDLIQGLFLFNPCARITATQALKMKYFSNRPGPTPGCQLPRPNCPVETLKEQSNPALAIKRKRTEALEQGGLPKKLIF
T4 sequence (P51946 whole entry partner): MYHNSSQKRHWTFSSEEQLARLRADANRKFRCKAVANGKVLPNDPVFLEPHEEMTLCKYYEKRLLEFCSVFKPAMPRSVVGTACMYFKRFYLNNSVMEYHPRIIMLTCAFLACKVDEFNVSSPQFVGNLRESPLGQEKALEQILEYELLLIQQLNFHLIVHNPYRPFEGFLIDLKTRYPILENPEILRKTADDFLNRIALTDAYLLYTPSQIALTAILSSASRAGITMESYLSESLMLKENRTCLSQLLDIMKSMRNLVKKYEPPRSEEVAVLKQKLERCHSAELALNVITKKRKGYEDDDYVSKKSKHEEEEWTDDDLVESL
T4 sequence (P51948 whole entry partner): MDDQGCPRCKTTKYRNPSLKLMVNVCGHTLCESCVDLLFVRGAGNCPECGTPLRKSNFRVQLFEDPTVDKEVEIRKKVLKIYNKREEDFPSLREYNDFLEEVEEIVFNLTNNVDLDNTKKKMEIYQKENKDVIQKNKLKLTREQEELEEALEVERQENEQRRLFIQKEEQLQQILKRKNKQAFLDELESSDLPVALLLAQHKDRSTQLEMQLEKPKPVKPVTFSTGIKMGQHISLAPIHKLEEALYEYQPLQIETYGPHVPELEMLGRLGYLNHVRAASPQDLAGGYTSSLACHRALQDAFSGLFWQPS
Method in brief: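 LANCE Ultra TR-FRET kinase assay using a ULight-labeled peptide substrate and a Eu-labeled anti-phospho antibody, with ATP at its Km. Purified CDK/cyclin complex was added to compound after brief centrifugation.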

Row | Structure (SMILES) | CDK1/CDK7: Selectivity of CDK7 inhibition over CDK1 inhibition
10 | CC(C)c1cnn2c(NCc3c(Cl)cccc3-c3ccc4ccccc4n3)nc(N3CCCC[C@H]3CCO)nc12 [Compound 262] | B (B=less than 200 fold, but greater than 20 fold)
11 | CC(C)c1cnn2c(NCc3ccccc3-c3ccc4ccccc4n3)nc(N3CCCC[C@H]3CO)nc12 [Compound 263] | B (B=less than 200 fold, but greater than 20 fold)
12 | CC(C)c1cnn2c(NCc3c(Cl)cccc3-c3ccc4ccccc4n3)nc(N3CCCC[C@H]3CO)nc12 [Compound 264] | B (B=less than 200 fold, but greater than 20 fold)

same assay, conditions: CDK2/CDK7

Row | Structure (SMILES) | CDK2/CDK7: Selectivity of CDK7 inhibition over CDK2 inhibition
13 | CC(C)c1cnn2c(NCc3c(Cl)cccc3-c3ccc4ccccc4n3)nc(N3CCCC[C@H]3CCO)nc12 [Compound 262] | B (B=less than 200 fold, but greater than 20 fold)
14 | CC(C)c1cnn2c(NCc3ccccc3-c3ccc4ccccc4n3)nc(N3CCCC[C@H]3CO)nc12 [Compound 263] | B (B=less than 200 fold, but greater than 20 fold)
15 | CC(C)c1cnn2c(NCc3c(Cl)cccc3-c3ccc4ccccc4n3)nc(N3CCCC[C@H]3CO)nc12 [Compound 264] | B (B=less than 200 fold, but greater than 20 fold)

same assay, conditions: CDK5/CDK7

Row | Structure (SMILES) | CDK5/CDK7: Selectivity of CDK7 inhibition over CDK5 inhibition
16 | CC(C)c1cnn2c(NCc3c(Cl)cccc3-c3ccc4ccccc4n3)nc(N3CCCC[C@H]3CCO)nc12 [Compound 262] | B (B=less than 200 fold, but greater than 20 fold)
17 | CC(C)c1cnn2c(NCc3ccccc3-c3ccc4ccccc4n3)nc(N3CCCC[C@H]3CO)nc12 [Compound 263] | B (B=less than 200 fold, but greater than 20 fold)
18 | CC(C)c1cnn2c(NCc3c(Cl)cccc3-c3ccc4ccccc4n3)nc(N3CCCC[C@H]3CO)nc12 [Compound 264] | B (B=less than 200 fold, but greater than 20 fold)

same assay, conditions: read-out: CDK7 enzymatic activity (IC50 activity range)

Row | IC50 | Structure (SMILES)
19 | 100 to 1000 nM | CC(C)c1cnn2c(NCc3c(Cl)cccc3-c3ccc4ccccc4n3)nc(N3CCCC[C@H]3CCO)nc12 [Compound 262]
20 | 100 to 1000 nM | CC(C)c1cnn2c(NCc3ccccc3-c3ccc4ccccc4n3)nc(N3CCCC[C@H]3CO)nc12 [Compound 263]
21 | 100 to 1000 nM | CC(C)c1cnn2c(NCc3c(Cl)cccc3-c3ccc4ccccc4n3)nc(N3CCCC[C@H]3CO)nc12 [Compound 264]

system: H460; assay: Cellular H460 viability assay (CellTiter-Glo, 72 hours); assay type: cell-based; details: Homo sapiens, NCI-H460
Method in brief: (§2)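 72 h treatment, 37 °C, 5% CO2; DMSO ctrl, final <0.1%; CellTiter-Glo luminescence; n=2.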

Row | IC50 | Structure (SMILES)
22 | > 10000 nM | CC(C)c1cnn2c(NCc3c(Cl)cccc3-c3ccc4ccccc4n3)nc(N3CCCC[C@H]3CCO)nc12 [Compound 262]
23 | > 10000 nM | CC(C)c1cnn2c(NCc3ccccc3-c3ccc4ccccc4n3)nc(N3CCCC[C@H]3CO)nc12 [Compound 263]
24 | > 10000 nM | CC(C)c1cnn2c(NCc3c(Cl)cccc3-c3ccc4ccccc4n3)nc(N3CCCC[C@H]3CO)nc12 [Compound 264]

system: MV4-11; assay: Cellular MV4-11 viability assay (CellTiter-Glo, 72 hours); assay type: cell-based; details: Homo sapiens
Method in brief: as §2

Row | IC50 | Structure (SMILES)
25 | > 10000 nM | CC(C)c1cnn2c(NCc3c(Cl)cccc3-c3ccc4ccccc4n3)nc(N3CCCC[C@H]3CCO)nc12 [Compound 262]
26 | > 10000 nM | CC(C)c1cnn2c(NCc3ccccc3-c3ccc4ccccc4n3)nc(N3CCCC[C@H]3CO)nc12 [Compound 263]
27 | > 10000 nM | CC(C)c1cnn2c(NCc3c(Cl)cccc3-c3ccc4ccccc4n3)nc(N3CCCC[C@H]3CO)nc12 [Compound 264]

system: A2780; assay: Cellular A2780 viability assay (CellTiter-Glo, 72 hours); assay type: cell-based; details: Homo sapiens
Text: Human T-cell acute lymphoblastic leukemia cell line, MOLT-4 (ATCC, Cat #CRL-1582), Human multiple myeloma cell line, RPMI-8226 (Invitrogen, Cat #22400-089) and MM.1S (ATCC, Cat #CRL-2974), NSCLC (Non-small cell lung cancer) cell line H460 (ATCC, Cat #HTB-177), Human colon colorectal carcinoma cell line HCT116 (ATCC, Cat #CCL-247), Human acute monocytic leukemia cell line MV4-11 (ATCC, Cat #CRL-9591), OVCAR-3 (ATCC, Cat #HTB-161) and A2780 (ECACC, Cat #93112519) were obtained from ATCC. Cells were grown in RPMI-1640 media (Invitrogen, Cat #22400-089) supplemented with 10% FBS (Invitrogen, Cat #10099141) and 1% penicillin/streptomycin (Invitrogen, Cat #15070063) and cultured at 37° C., 5% CO2 in a humidified chamber. All cell lines were routinely tested for mycoplasma.
The effect of the CDK7 inhibitor to inhibit the growth of target cancer cells was evaluated through the 72 hours time period of viability assay. Briefly, the candidate cell line ware plated in 96 well plate at the following density of cells respectively. 1×10^4 cells/well for MOLT-4, RPMI-8226, MV4-11 and MM.1S, 5×10^3 for H460, HCT116 and OVCAR-3 and IX 10^3 for A2780. After 24 hours, the cells were treated with various concentrations of the compound (ranging from 0.0015 uM to 10 uM). DMSO solvent without compound served as a control and final DMSO concentration less than 0.1%. After 72 hours of incubation at 37° C., 5% CO2 incubator, cells were analyzed for the viability using the CellTiter-Glo Luminescent Cell Viability Assay (Promega, Cat #G7570). All viability assays were performed in duplicate and Luminescence was read using an Envision (Perkin Elmer, USA). Data was analyzed using XLfit software.

Row | IC50 | Structure (SMILES)
28 | > 10000 nM | CC(C)c1cnn2c(NCc3c(Cl)cccc3-c3ccc4ccccc4n3)nc(N3CCCC[C@H]3CCO)nc12 [Compound 262]
29 | > 10000 nM | CC(C)c1cnn2c(NCc3ccccc3-c3ccc4ccccc4n3)nc(N3CCCC[C@H]3CO)nc12 [Compound 263]
30 | > 10000 nM | CC(C)c1cnn2c(NCc3c(Cl)cccc3-c3ccc4ccccc4n3)nc(N3CCCC[C@H]3CO)nc12 [Compound 264]

From US11945822B2, “Pyrazolo-triazine and/or pyrazolo-pxrimidine derivatives as selective inhibitor of cyclin dependent kinase” (QURIENT CO., LTD., priority 2018, dated 2024)
